We go through 15 compounds from the SangsterLogP compilation.

The structures appear in SMILES notation.

As usually defined, the logP is the decadic logarithm of the partition coefficient of the neutral form, usually between octanol and water. Read a high logP as higher lipophilicity.

Take `CC(=O)c1cccc(NCc2cnc3nc(N)nc(N)c3c2C)c1`: the logP is 1.46.
Compound `Cc1cccc(Cl)c1NCc1cnc2nc(N)nc(N)c2c1C` yielded a logP of 2.05.
To `Cc1cc(C)cc(NCc2cnc3nc(N)nc(N)c3c2C)c1` belongs 2.11.
Then `Cc1ccc(C)c(NCc2cnc3nc(N)nc(N)c3c2C)c1`, with 2.29.
`Cc1c(CNc2ccc(Cl)cc2)cnc2nc(N)nc(N)c12`: the logP is 2.03.
Then `Cc1c(CNc2ccccc2)cnc2nc(N)nc(N)c12`, with 2.02; and `Cc1ccccc1NCc1cnc2nc(N)nc(N)c2c1C`, with 1.98.
Then `Cc1c(CNc2cccc(Cl)c2Cl)cnc2nc(N)nc(N)c12`, with 2.1; and `Cc1c(Cl)cccc1NCc1cnc2nc(N)nc(N)c2c1C`, with 2.04; and `Cc1cc(NCc2cnc3nc(N)nc(N)c3c2C)ccc1Cl`, with 2.03.
Then `CCOc1ccccc1NCc1cnc2nc(N)nc(N)c2c1C`, with 2.07; and `Cc1ccc(NCc2cnc3nc(N)nc(N)c3c2C)cc1Cl`, with 2.03; and `Cc1c(CNc2ccc(Cl)c(Cl)c2)cnc2nc(N)nc(N)c12`, with 2.06.
As to `CC(=O)c1ccc(NCc2cnc3nc(N)nc(N)c3c2C)cc1`, the logP stood at 1.45.
Then `Cc1c(CNc2c(Cl)cccc2Cl)cnc2nc(N)nc(N)c12`, with 2.
